Data taken from patent US6133292A, “Diaryl-5-alkyl-5-methyl-2-(5H)-furanones as selective cyclooxygenase-2-inhibitors” (Merck Frosst Canada & Co., priority 1998, dated 2000).

Test: Pharmacokinetics in rats (half-life)
Assay type: in vivo, rat (male Sprague Dawley)
Details: rat, blood, read-out: T 1/2 in Rats (converted)
Source text: Per Os Pharmacokinetics in Rats--Procedure:
The animals are housed, fed and cared for according to the Guidelines of the Canadian Council on Animal Care. Male Sprague Dawley rats (325-375 g) are fasted overnight prior to each PO blood level study. The rats are placed in the restrainer one at a time and the box firmly secured. The zero blood sample is obtained by nicking a small (1 mm or less) piece off the tip of the tail. The tail is then stroked with a firm but gentle motion from the top to the bottom to milk out the blood. Approximately 1 mL of blood is collected into a heparirnized vacutainer tube.
Compounds are prepared as required, in a standard dosing volume of 10 mL/kg, and administered orally by passing a 16 gauge, 3" gavaging needle into the stomach. Subsequent bleeds are taken in the same manner as the zero bleed except that there is no need to nick the tail again. The tail is cleaned with a piece of gauze and milked/stroked as described above into the appropriately labelled tubes.
Immediately after sampling, blood is centrifuged, separated, put into clearly marked vials and stored in a freezer until analysed. Typical time points for determination of rat blood levels after PO dosing are 0, 15 min, 30 min, 1 h, 2 h, 4 h, and 6 h.
After the 4 hr time point bleed, food is provided to the rats ad libitum. Water is provided at all times during the study.
The following vehicles may be used in PO rat blood level determinations:
Compounds for PO blood levels can be in suspension form. For better dissolution, the solution can be placed in a sonicator for approximately 5 minutes.
For analysis, aliquots are diluted with an equal volume of acetonitrile and centrifuged to remove protein precipitate. The supernatant is injected directly onto a C-18 HPLC column with UV detection. Quantitation is done relative to a clean blood sample spiked with a known quantity of drug.
Intravenous Pharmacokinetics in Rats--Procedure
The animals are housed, fed and cared for according to the Guidelines of the Canadian Council on Animal Care. Male Sprague Dawley (325-375 g) rats are placed in plastic shoe box cages with a suspended floor, cage top, water bottle and food. The compound is prepared as required, in a standard dosing volume of 1 mL/kg.
Rats are bled for the zero blood sample and dosed under CO2 sedation. The rats, one at a time, are placed in a primed CO2 chamber and taken out as soon as they have lost their righting reflex. The rat is then placed on a restraining board, a nose cone with CO2 delivery is placed over the muzzle and the rat restrained to the board with elastics. With the use of forceps and scissors, the jugular vein is exposed and the zero sample taken, followed by a measured dose of compound which is injected into the jugular vein. Light digital pressure is applied to the injection site, and the nose cone is removed. The time is noted. This constitutes the zero time point.
The 5 min bleed is taken by nicking a piece (1-2 mm) off the tip of the tail. The tail is then stroked with a firm but gentle motion from the top of the tail to the bottom to milk the blood out of the tail. Approximately 1 mL of blood is collected into a heparinized collection vial. Subsequent bleeds are taken in the same fashion, except that there is no need to nick the tail again. The tail is cleaned with a piece of gauze and bled, as described above, into the appropriate labelled tubes. Typical time points for determination of rat blood levels after I.V. dosing are either a) 0, 5 min, 15 min, 30 min, 1 h, 2 h, 6 h, or b) 0, 5 min, 30 min, 1 h, 2 h, 4 h, 6 h.
The following vehicles may be used in IV rat blood level determinations:
DMSO (dimethylsulfoxide): Restricted to a dose volume of 0.1 mL per animal
PEG 200: Not more than 60% mixed with 40% sterile water --1 mL/kg
With Dextrose, either sodium bicarbonate or sodium carbonate can be added if the solution is cloudy. […]

For `CC1(C)OC(=O)C(c2ccc(F)cc2)=C1c1ccc(S(C)(=O)=O)cc1` [Compound T3-1, 3-(4-fluorophenyl)-5,5-dimethyl-4-[4-(methylsulfonyl)phenyl]-2,5-dihydro-2-furanone, reference compound], which half-life is on record?
The half-life was greater than 24 h.

With `CCC1(C)OC(=O)C(c2ccc(F)cc2)=C1c1ccc(S(C)(=O)=O)cc1` (centres unmarked) [c, 5-ethyl-3-(4-fluorophenyl)-5-methyl-4-[4-(methylsulfonyl)phenyl]-2,5-dihydro-2-furanone] as the compound, how does the half-life read?
The half-life was 3 h.

With `CC[C@@]1(C)OC(=O)C(c2ccc(F)c(F)c2)=C1c1ccc(S(C)(=O)=O)cc1` [h, (5R)-3-(3,4-difluorophenyl)-5-ethyl-5-methyl-4-[4-(methylsulfonyl)phenyl] -2,5-dihydro-2-furanone] as the compound, how does the half-life read?
Its half-life is 3.6 h.

With `CC[C@]1(C)OC(=O)C(c2ccc(F)c(F)c2)=C1c1ccc(S(C)(=O)=O)cc1` [i, (5S)-3-(3,4-difluorophenyl)-5-ethyl-5-methyl-4-[4-(methylsulfonyl)phenyl] -2,5-dihydro-2-furanone] as the compound, how does the half-life read?
The half-life was 4.8 h.

For `CCCC1(C)OC(=O)C(c2ccc(F)cc2)=C1c1ccc(S(C)(=O)=O)cc1` (centres unmarked) [n, 3-(4-fluorophenyl)-5-methyl-4-[4-(methylsulfonyl)phenyl]-5-propyl-2,5-dihydro-2-furanone], which half-life is on record?
The half-life was roughly 1 h.
